Starred links: 1 amine or outer side, 2 acyl side, 3 side chain; linkers in the order of their positions; H or OH if unused. Non-standard residues stand in square brackets, D forms with d. Residues, ends and D or L forms follow the SMILES beside them. Groups on a side chain read outwards from the residue. *: point of attachment. C16 diacid = O=C(O)CCCCCCCCCCCCCCC(=O)*; γGlu = O=C(O)[C@H](CCC(=O)[*:2])N[*:1]; Palmitoyl = CCCCCCCCCCCCCCCC(=O)*; AEEA = NCCOCCOCC(=O)O; Aib = CC(C)(N)C(=O)O
Key:
CRF1R receptor = molecular target: T1, CRF1R receptor (Homo sapiens, UniProt P34998); assay: cAMP activity at anti-target CRF1R, CHO-K1 cell line clone 2 (Example 19.10); assay type: cell-based; settings: for EC50: 0% HSA, read-out: EC50 [nM] 0% HSA; for EC50 / Emax: CRF1R CHO-K1 clone 2; for Emax: 100% = Sauvagine at 100 nM; for CRF1/CRF2 ratio: ratio of CRF1 EC50 to CRF2 EC50
T1 construct: host or cells: CHO-K1 clone 2
T1 sequence (P34998 24-415): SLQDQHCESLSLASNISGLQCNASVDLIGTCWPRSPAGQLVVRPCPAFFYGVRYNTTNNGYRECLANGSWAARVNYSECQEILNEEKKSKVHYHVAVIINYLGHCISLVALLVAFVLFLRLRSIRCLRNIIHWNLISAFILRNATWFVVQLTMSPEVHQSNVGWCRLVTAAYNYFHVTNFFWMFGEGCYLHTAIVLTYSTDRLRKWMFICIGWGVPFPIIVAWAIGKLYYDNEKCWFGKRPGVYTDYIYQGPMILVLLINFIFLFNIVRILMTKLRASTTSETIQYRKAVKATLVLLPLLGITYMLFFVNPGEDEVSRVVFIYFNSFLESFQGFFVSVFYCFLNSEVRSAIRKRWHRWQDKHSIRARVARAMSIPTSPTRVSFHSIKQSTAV
Method in brief: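 The cAMP read-out used the same protocol as the previous assay, except that Sauvagine at 100 nM set the 100% activation control. Cells were CHO-K1 clone 2 overexpressing CRF1R, cultured in F12 medium with 10% FBS and G418 and stored frozen until use.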

human CRF2α receptor = molecular target: T2, human CRF2α receptor (Homo sapiens, UniProt Q13324); assay: cAMP agonism at human CRF2α receptor in TeloHEAC cells, FA modified peptides (Example 19.9); assay type: cell-based; settings: 0% HSA, relative to urocortin 2
T2 construct: expressed in transfected cells; host or cells: TeloHEAC
T2 sequence (Q13324 1-411): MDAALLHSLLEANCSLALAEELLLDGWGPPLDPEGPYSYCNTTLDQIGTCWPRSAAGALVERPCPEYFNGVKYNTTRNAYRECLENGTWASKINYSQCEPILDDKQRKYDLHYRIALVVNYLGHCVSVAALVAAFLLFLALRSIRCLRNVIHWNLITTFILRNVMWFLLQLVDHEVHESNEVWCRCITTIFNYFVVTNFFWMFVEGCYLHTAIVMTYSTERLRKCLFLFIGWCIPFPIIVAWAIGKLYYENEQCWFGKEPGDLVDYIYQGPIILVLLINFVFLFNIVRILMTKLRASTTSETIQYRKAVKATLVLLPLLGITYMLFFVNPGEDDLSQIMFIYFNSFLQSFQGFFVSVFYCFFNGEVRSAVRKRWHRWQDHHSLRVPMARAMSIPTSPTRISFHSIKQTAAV
Method in brief: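 Efficacy and EC50 are referenced to 100 nM urocortin 2 as 100%, with cAMP measured as the 665/620 nm HTRF ratio after 1 h at room temperature. Compounds (0.5 mM DMSO stock, 16 twofold dilutions) acted 30 min at 37 °C on CRF2α-expressing TeloHEAC cells, buffer containing IBMX and 0% or 0.2% HSA.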

| SMILES | EC50 (CRF1R receptor) [nM] | Emax (CRF1R receptor) [%] | EC50 (human CRF2α receptor) [nM] | CRF1/CRF2 ratio (CRF1R receptor) |
| --- | --- | --- | --- | --- |
| CC[C@H](C)[C@H](N)C(=O)N[C@H](C(=O)N[C@@H](CC(C)C)C(=O)N[C@@H](CO)C(=O)N[C@@H](CC(C)C)C(=O)N[C@@H](CC(=O)O)C(=O)N[C@@H](C(=O)N1CCC[C@H]1C(=O)N[C@H](C(=O)N[C@@H](CCCCN)C(=O)N[C@@H](CC(C)C)C(=O)N[C@@H](CCCCNC(=O)COCCOCCNC(=O)COCCOCCNC(=O)CC[C@H](NC(=O)CC[C@H](NC(=O)CCCCCCCCCCCCCCC(=O)O)C(=O)O)C(=O)O)C(=O)N[C@@H](CCC(N)=O)C(=O)N[C@H](C(=O)N[C@@H](CC(C)C)C(=O)N[C@@H](CC(C)C)C(=O)N[C@@H](CCCCN)C(=O)N[C@@H](CCC(N)=O)C(=O)N[C@@H](CCC(=O)O)C(=O)N[C@@H](CCCNC(=N)N)C(=O)N[C@@H](CCC(N)=O)C(=O)N[C@@H](CCCCN)C(=O)N[C@@H](CCCCN)C(=O)NC(C)(C)C(=O)N[C@@H](CCCNC(=N)N)C(=O)N[C@@H](CCC(N)=O)C(=O)N[C@@H](CCCCN)C(=O)N[C@@H](C)C(=O)N[C@@H](CCC(=O)O)C(=O)N[C@@H](CCCCN)C(=O)N[C@@H](CC(N)=O)C(=O)N[C@@H](CCCCN)C(=O)N[C@@H](CCC(N)=O)C(=O)N[C@H](C(=O)N[C@@H](CC(C)C)C(=O)N[C@@H](C)C(=O)N[C@@H](CCC(N)=O)C(=O)N[C@H](C(N)=O)C(C)C)[C@@H](C)CC)[C@@H](C)CC)[C@@H](C)CC)C(C)C)C(C)C [compound 201] (H-IVLSLD[dV]PIKLK([AEEA-AEEA-γGlu-γGlu-C16 diacid])QILLKQERQKK[Aib]RQKAEKNKQILAQV-NH2; N-terminus assumed) | > 100 | -2.8 | 4.66 | – |
| CC[C@H](C)[C@H](N)C(=O)N[C@H](C(=O)N[C@@H](CC(C)C)C(=O)N[C@@H](CO)C(=O)N[C@@H](CC(C)C)C(=O)N[C@@H](CC(=O)O)C(=O)N[C@@H](C(=O)N1CCC[C@H]1C(=O)N[C@H](C(=O)NCC(=O)N[C@@H](CC(C)C)C(=O)N[C@@H](CCCCNC(=O)COCCOCCNC(=O)COCCOCCNC(=O)CC[C@H](NC(=O)CCCCCCCCCCCCCCC(=O)O)C(=O)O)C(=O)N[C@@H](CCC(N)=O)C(=O)N[C@H](C(=O)N[C@@H](CC(C)C)C(=O)N[C@@H](CC(C)C)C(=O)N[C@@H](CCCCN)C(=O)N[C@@H](CCC(N)=O)C(=O)N[C@@H](CCC(=O)O)C(=O)N[C@@H](CCCNC(=N)N)C(=O)N[C@@H](CCC(N)=O)C(=O)N[C@@H](CCCCN)C(=O)N[C@@H](CCCCN)C(=O)NC(C)(C)C(=O)N[C@@H](CCCNC(=N)N)C(=O)N[C@@H](CCC(=O)O)C(=O)N[C@@H](CCC(N)=O)C(=O)N[C@@H](C)C(=O)N[C@@H](CCC(=O)O)C(=O)N[C@H](C(=O)N[C@@H](CC(N)=O)C(=O)N[C@@H](CCCCN)C(=O)N[C@@H](CCC(N)=O)C(=O)N[C@H](C(=O)N[C@@H](CC(C)C)C(=O)N[C@@H](C)C(=O)N[C@@H](CCC(N)=O)C(=O)N[C@H](C(N)=O)C(C)C)[C@@H](C)CC)[C@@H](C)O)[C@@H](C)CC)[C@@H](C)CC)C(C)C)C(C)C [compound 202] (H-IVLSLD[dV]PIGLK([AEEA-AEEA-γGlu-C16 diacid])QILLKQERQKK[Aib]REQAETNKQILAQV-NH2; N-terminus assumed) | > 100 | 5.4 | 0.87 | – |
| CC[C@H](C)[C@H](N)C(=O)N[C@H](C(=O)N[C@@H](CC(C)C)C(=O)N[C@@H](CO)C(=O)N[C@@H](CC(C)C)C(=O)N[C@@H](CC(=O)O)C(=O)N[C@@H](C(=O)N1CCC[C@H]1C(=O)N[C@H](C(=O)NCC(=O)N[C@@H](CC(C)C)C(=O)N[C@@H](CCCCNC(=O)COCCOCCNC(=O)COCCOCCNC(=O)CC[C@H](NC(=O)CC[C@H](NC(=O)CCCCCCCCCCCCCCC(=O)O)C(=O)O)C(=O)O)C(=O)N[C@@H](CCC(N)=O)C(=O)N[C@H](C(=O)N[C@@H](CC(C)C)C(=O)N[C@@H](CC(C)C)C(=O)N[C@@H](CCCCN)C(=O)N[C@@H](CCC(N)=O)C(=O)N[C@@H](CCC(=O)O)C(=O)N[C@@H](CCCNC(=N)N)C(=O)N[C@@H](CCC(N)=O)C(=O)N[C@@H](CCCCN)C(=O)N[C@@H](CCCCN)C(=O)NC(C)(C)C(=O)N[C@@H](CCCNC(=N)N)C(=O)N[C@@H](CCC(=O)O)C(=O)N[C@@H](CCC(N)=O)C(=O)N[C@@H](C)C(=O)N[C@@H](CCC(=O)O)C(=O)N[C@H](C(=O)N[C@@H](CC(N)=O)C(=O)N[C@@H](CCCCN)C(=O)N[C@@H](CCC(N)=O)C(=O)N[C@H](C(=O)N[C@@H](CC(C)C)C(=O)N[C@@H](C)C(=O)N[C@@H](CCC(N)=O)C(=O)N[C@H](C(N)=O)C(C)C)[C@@H](C)CC)[C@@H](C)O)[C@@H](C)CC)[C@@H](C)CC)C(C)C)C(C)C [compound 203] (H-IVLSLD[dV]PIGLK([AEEA-AEEA-γGlu-γGlu-C16 diacid])QILLKQERQKK[Aib]REQAETNKQILAQV-NH2; N-terminus assumed) | > 100 | 4.7 | 4.7 | – |
| CCCCCCCCCCCCCCCC(=O)N[C@@H](CCC(=O)NCCCC[C@H](NC(=O)[C@H](CC(C)C)NC(=O)[C@H](CCCCN)NC(=O)[C@@H](NC(=O)[C@@H]1CCCN1C(=O)[C@H](NC(=O)[C@H](CC(=O)O)NC(=O)[C@H](CC(C)C)NC(=O)[C@H](CO)NC(=O)[C@H](CC(C)C)NC(=O)[C@@H](NC(=O)[C@@H](N)[C@@H](C)CC)C(C)C)C(C)C)[C@@H](C)CC)C(=O)N[C@@H](CCC(N)=O)C(=O)N[C@H](C(=O)N[C@@H](CC(C)C)C(=O)N[C@@H](CC(C)C)C(=O)N[C@@H](CCCCN)C(=O)N[C@@H](CCC(N)=O)C(=O)N[C@@H](CCC(=O)O)C(=O)N[C@@H](CCCNC(=N)N)C(=O)N[C@@H](CCC(N)=O)C(=O)N[C@@H](CCCCN)C(=O)NC(C)(C)C(=O)N[C@@H](CCC(N)=O)C(=O)N[C@@H](CCCNC(=N)N)C(=O)N[C@@H](CCC(=O)O)C(=O)N[C@@H](CCC(N)=O)C(=O)N[C@@H](C)C(=O)N[C@@H](CCC(=O)O)C(=O)N[C@@H](CCCCN)C(=O)N[C@@H](CC(N)=O)C(=O)N[C@@H](CCCCN)C(=O)N[C@@H](CCC(N)=O)C(=O)N[C@H](C(=O)N[C@@H](CC(C)C)C(=O)N[C@@H](C)C(=O)N[C@@H](CCC(N)=O)C(=O)N[C@H](C(N)=O)C(C)C)[C@@H](C)CC)[C@@H](C)CC)C(=O)O [compound 204] (H-IVLSLD[dV]PIKLK([γGlu-Palmitoyl])QILLKQERQK[Aib]QREQAEKNKQILAQV-NH2) | – | – | 0.14 | 3 |
| CCCCCCCCCCCCCCCC(=O)N[C@@H](CCC(=O)NCCCC[C@H](NC(=O)[C@H](CC(C)C)NC(=O)CNC(=O)[C@@H](NC(=O)[C@@H]1CCCN1C(=O)[C@H](NC(=O)[C@H](CC(=O)O)NC(=O)[C@H](CC(C)C)NC(=O)[C@H](CO)NC(=O)[C@H](CC(C)C)NC(=O)[C@@H](NC(=O)[C@@H](N)[C@@H](C)CC)C(C)C)C(C)C)[C@@H](C)CC)C(=O)N[C@@H](CCC(N)=O)C(=O)N[C@H](C(=O)N[C@@H](CC(C)C)C(=O)N[C@@H](CC(C)C)C(=O)N[C@@H](CCCCN)C(=O)N[C@@H](CCC(N)=O)C(=O)N[C@@H](CCC(=O)O)C(=O)N[C@@H](CCCNC(=N)N)C(=O)N[C@@H](CCC(N)=O)C(=O)N[C@@H](CCCCN)C(=O)N[C@@H](CCCCN)C(=O)NC(C)(C)C(=O)N[C@@H](CCCNC(=N)N)C(=O)N[C@@H](CCC(=O)O)C(=O)N[C@@H](CCC(N)=O)C(=O)N[C@@H](C)C(=O)N[C@@H](CCC(=O)O)C(=O)N[C@H](C(=O)N[C@@H](CC(N)=O)C(=O)N[C@@H](CCCCN)C(=O)N[C@@H](CCCNC(=N)N)C(=O)N[C@H](C(=O)N[C@@H](CC(C)C)C(=O)N[C@@H](CCC(=O)O)C(=O)N[C@@H](CCCNC(=N)N)C(=O)N[C@H](C(N)=O)C(C)C)[C@@H](C)CC)[C@@H](C)O)[C@@H](C)CC)C(=O)O [compound 207] (H-IVLSLD[dV]PIGLK([γGlu-Palmitoyl])QILLKQERQKK[Aib]REQAETNKRILERV-NH2; N-terminus assumed) | – | – | 0.68 | 6 |
